# Data reported in US20250000843A1, “LIGNAN-INSPIRED COMPOUNDS, METHODS OF MAKING, AND USING THEREOF” (IOWAIBO, INC., priority 2023, published 2025).
# Assays:
# [1] = target: telomerase (Homo sapiens, UniProt O14746); experiment: Q-TRAP telomerase activity in MCF7 breast cancer cells; type: cell-based; parameters: allow the enzymatic addition of telomeric DNA repeats by endogenous telomerase; endogenous in cells
# [2] = tested on: PC3, a human prostate cancer cell line; experiment: MTT toxicity assay in PC3 prostate cancer cells; type: cell-based
# Description: Toxicity of the dibenzyl butyl lactone derivative (3-[(3,4-dimethoxyphenyl)cyclopentyl], 4-[(3-hydroxyphenol)methyl]oxolan-2-one) in breast cancer cells was evaluated using MTT assay. The MTT toxicity test is a colorimetric assay to measure cells' metabolic activity by serving as a substrate of cellular enzymes that reduce the tetrazolium orange dye, MTT (3-(4,5-Dimethylthiazol-2-yl)-2,5-diphenyltetrazolium bromide) to its insoluble, formazan, giving a purple color. The rate of conversion is directly proportional to cells' mitochondrial metabolic activity via NAD (P) H-dependent cellular oxidoreductase enzymes and serves as a surrogate marker of cell viability.
# Cells previously expanded were seeded in 96 well plates at 1.9×10^5 and 9.6×10^4 cells/plate for 24- and 72-hours treatment respectively. This concentration is known to show the best window for the MTT assay, with better sensitivity and low variability.
# 5 mg of powdered enterolactone, dibenzyl butyl lactone derivative enantiomer A, and dibenzyl butyl lactone derivative enantiomer B were dissolved in 500 μl of DMSO at room temperature. Eight-point curves, ⅓ dilutions (highest concentration 125 μM), were prepared.
# Twenty-four hours following the seeding process, the cells were washed once with phosphate buffered saline (PBS) and treated with the respective compounds in cell culture media. Each condition was tested in triplicates. For positive and negative controls, 8 mM methyl methane sulfonate (MMS) and DMSO 100% were used respectively.
# Following compound addition, the plates were incubated for 24 and 72 hours. After the treatment period, cells were washed twice with PBS and media was replaced with MTT reagent at 0.5 mg/ml in Dulbecco's modified Eagle medium (DMEM) without phenol red. The plates were gently shaken and incubated for 4 hours. After the incubation the medium was removed and replaced by DMSO. The plates were gently shaken to solubilize the formazan crystals. Absorbance was measured using an Envision multiplate reader at a wavelength of 570 nm.
# Toxicity of the dibenzyl butyl lactone derivative (3-[(3,4-dimethoxyphenyl)cyclopentyl], 4-[(3-hydroxyphenol)methyl]oxolan-2-one) in prostate cancer cells was evaluated using MTT assay. The same methods as those used in Example 2 were employed, except the cell line used was PC3, a human prostate cancer cell line, and cell cultures were established in Kaighn's modification of Ham's […] medium.
# MTT assay results are shown in Tables 16-21 and expressed as the percentage of cell death after treatment.
# Chain of telomerase (O14746 whole entry): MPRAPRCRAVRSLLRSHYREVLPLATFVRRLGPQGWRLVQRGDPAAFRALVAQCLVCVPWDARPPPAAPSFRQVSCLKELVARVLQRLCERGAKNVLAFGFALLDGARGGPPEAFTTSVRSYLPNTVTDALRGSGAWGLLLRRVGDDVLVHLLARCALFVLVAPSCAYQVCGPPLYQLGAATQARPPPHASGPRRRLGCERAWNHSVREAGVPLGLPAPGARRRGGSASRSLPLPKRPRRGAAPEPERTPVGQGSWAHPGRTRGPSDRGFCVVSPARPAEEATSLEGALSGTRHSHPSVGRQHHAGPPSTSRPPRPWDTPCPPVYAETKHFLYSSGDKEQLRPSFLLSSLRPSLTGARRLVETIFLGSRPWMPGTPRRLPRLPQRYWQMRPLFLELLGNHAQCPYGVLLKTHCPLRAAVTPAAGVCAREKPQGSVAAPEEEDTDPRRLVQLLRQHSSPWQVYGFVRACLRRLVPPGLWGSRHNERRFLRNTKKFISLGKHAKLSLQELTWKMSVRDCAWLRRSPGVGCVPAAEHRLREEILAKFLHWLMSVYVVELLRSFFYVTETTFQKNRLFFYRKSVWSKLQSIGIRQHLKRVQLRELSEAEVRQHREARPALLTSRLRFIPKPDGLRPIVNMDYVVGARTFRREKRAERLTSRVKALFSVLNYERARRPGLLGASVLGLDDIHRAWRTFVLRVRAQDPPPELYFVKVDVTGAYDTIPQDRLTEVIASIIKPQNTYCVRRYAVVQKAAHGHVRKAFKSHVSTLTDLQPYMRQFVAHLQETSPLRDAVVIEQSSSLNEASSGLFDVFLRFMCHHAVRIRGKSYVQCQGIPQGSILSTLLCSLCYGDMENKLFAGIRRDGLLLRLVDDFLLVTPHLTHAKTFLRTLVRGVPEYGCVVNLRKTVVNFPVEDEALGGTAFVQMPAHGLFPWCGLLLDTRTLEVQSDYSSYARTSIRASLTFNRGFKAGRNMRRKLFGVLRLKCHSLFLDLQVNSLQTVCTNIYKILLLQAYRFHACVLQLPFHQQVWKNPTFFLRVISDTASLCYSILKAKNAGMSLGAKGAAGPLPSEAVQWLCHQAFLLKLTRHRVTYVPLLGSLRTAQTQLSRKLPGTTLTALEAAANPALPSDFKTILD
# Chain of telomerase (O60832 whole entry partner): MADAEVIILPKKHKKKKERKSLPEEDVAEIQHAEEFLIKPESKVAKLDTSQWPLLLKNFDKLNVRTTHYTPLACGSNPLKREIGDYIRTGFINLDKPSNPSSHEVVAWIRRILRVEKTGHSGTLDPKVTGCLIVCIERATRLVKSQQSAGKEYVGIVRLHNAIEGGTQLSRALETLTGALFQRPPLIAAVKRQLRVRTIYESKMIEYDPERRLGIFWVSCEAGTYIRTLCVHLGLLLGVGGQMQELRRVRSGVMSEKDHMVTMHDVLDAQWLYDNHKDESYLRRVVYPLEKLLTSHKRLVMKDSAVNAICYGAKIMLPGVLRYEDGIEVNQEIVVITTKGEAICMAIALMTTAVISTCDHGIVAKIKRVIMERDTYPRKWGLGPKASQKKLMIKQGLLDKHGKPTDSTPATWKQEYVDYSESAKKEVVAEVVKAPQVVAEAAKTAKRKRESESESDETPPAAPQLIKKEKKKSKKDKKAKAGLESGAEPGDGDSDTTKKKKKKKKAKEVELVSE
# Chain of telomerase (Q9NPE3 whole entry partner): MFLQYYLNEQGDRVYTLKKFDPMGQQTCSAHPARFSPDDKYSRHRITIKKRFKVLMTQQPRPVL
# Chain of telomerase (Q9NX24 whole entry partner): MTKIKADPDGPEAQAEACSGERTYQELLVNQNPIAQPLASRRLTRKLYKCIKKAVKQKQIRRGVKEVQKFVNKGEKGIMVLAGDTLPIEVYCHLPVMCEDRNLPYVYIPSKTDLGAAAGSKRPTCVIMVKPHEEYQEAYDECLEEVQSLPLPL
# Chain of telomerase (Q9NY12 whole entry partner): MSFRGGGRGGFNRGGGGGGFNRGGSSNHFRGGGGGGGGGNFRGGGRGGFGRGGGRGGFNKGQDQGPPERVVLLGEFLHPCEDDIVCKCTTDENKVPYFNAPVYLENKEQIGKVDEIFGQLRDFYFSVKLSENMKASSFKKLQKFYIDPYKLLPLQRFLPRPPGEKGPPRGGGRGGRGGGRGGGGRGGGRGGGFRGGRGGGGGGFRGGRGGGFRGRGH
# Chain of telomerase (Q9BUR4 whole entry partner): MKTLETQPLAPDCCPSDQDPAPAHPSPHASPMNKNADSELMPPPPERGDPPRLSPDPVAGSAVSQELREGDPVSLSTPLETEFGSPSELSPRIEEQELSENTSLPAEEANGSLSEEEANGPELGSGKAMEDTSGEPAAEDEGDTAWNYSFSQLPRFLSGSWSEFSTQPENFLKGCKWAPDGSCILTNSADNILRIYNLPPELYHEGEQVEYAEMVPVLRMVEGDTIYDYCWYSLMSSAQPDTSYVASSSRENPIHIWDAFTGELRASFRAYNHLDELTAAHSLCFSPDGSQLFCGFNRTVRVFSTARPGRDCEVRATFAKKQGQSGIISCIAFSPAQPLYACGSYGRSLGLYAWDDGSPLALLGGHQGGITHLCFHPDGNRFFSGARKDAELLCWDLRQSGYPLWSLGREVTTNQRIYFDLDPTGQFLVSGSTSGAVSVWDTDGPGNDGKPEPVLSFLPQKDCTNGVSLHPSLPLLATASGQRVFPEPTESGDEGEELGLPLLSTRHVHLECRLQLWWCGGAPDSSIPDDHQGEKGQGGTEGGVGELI
structure (smiles),measurement,setting,value
"O=C1OC[C@H](Cc2cccc(O)c2)[C@H]1Cc1cccc(O)c1 (racemic) [Enterolactone, reference compound]",IC50,"[1]; MCF7, 24 h",> 40 µM
same,IC50,"[1]; MCF7, 48 h",> 40 µM
same,IC50,"[1]; MCF7, 72 h",> 40 µM
same,telomerase activity following treatment as compared to control (untreated) groups,"[1]; MCF7, Q-TRAP",no significant difference in telomerase activity
same,Cell death #1 (%),"[2]; PC3, 24 hours, 0.06 μM",−3.37%
same,Cell death #2 (%),"[2]; PC3, 24 hours, 0.06 μM",−20.79%
same,Cell death #3 (%),"[2]; PC3, 24 hours, 0.06 μM",−22.43%
same,Cell death (%) MEAN,"[2]; PC3, 24 hours, 0.06 μM",−15.53%
same,Cell death #1 (%),"[2]; PC3, 24 hours, 0.17 μM",−12.56%
same,Cell death #2 (%),"[2]; PC3, 24 hours, 0.17 μM",−5.41%
same,Cell death #3 (%),"[2]; PC3, 24 hours, 0.17 μM",−10.24%
same,Cell death (%) MEAN,"[2]; PC3, 24 hours, 0.17 μM",−9.40%
same,Cell death #1 (%),"[2]; PC3, 24 hours, 0.51 μM",−29.78%
same,Cell death #2 (%),"[2]; PC3, 24 hours, 0.51 μM",−35.88%
same,Cell death #3 (%),"[2]; PC3, 24 hours, 0.51 μM",−8.98%
same,Cell death (%) MEAN,"[2]; PC3, 24 hours, 0.51 μM",−24.88%
same,Cell death #1 (%),"[2]; PC3, 24 hours, 1.54 μM",−30.56%
same,Cell death #2 (%),"[2]; PC3, 24 hours, 1.54 μM",−47.58%
same,Cell death #3 (%),"[2]; PC3, 24 hours, 1.54 μM",−25.82%
same,Cell death (%) MEAN,"[2]; PC3, 24 hours, 1.54 μM",−34.65%
same,Cell death #1 (%),"[2]; PC3, 24 hours, 4.63 μM",−41.49%
same,Cell death #2 (%),"[2]; PC3, 24 hours, 4.63 μM",−38.59%
same,Cell death #3 (%),"[2]; PC3, 24 hours, 4.63 μM",−32.20%
same,Cell death (%) MEAN,"[2]; PC3, 24 hours, 4.63 μM",−37.42%
same,Cell death #1 (%),"[2]; PC3, 24 hours, 13.89 μM",−33.85%
same,Cell death #2 (%),"[2]; PC3, 24 hours, 13.89 μM",−41.29%
same,Cell death #3 (%),"[2]; PC3, 24 hours, 13.89 μM",−40.62%
same,Cell death (%) MEAN,"[2]; PC3, 24 hours, 13.89 μM",−38.59%
same,Cell death #1 (%),"[2]; PC3, 24 hours, 41.67 μM",−32.30%
same,Cell death #2 (%),"[2]; PC3, 24 hours, 41.67 μM",−17.98%
same,Cell death #3 (%),"[2]; PC3, 24 hours, 41.67 μM",−35.59%
same,Cell death (%) MEAN,"[2]; PC3, 24 hours, 41.67 μM",−28.62%
same,Cell death #1 (%),"[2]; PC3, 24 hours, 125.00 μM",19.65%
same,Cell death #2 (%),"[2]; PC3, 24 hours, 125.00 μM",12.01%
same,Cell death #3 (%),"[2]; PC3, 24 hours, 125.00 μM",15.10%
same,Cell death (%) MEAN,"[2]; PC3, 24 hours, 125.00 μM",15.59%
same,Cell death #1 (%),"[2]; PC3, 72 hours, 0.06 μM",−39.68%
same,Cell death #2 (%),"[2]; PC3, 72 hours, 0.06 μM",−40.18%
same,Cell death #3 (%),"[2]; PC3, 72 hours, 0.06 μM",−37.32%
same,Cell death (%) MEAN,"[2]; PC3, 72 hours, 0.06 μM",−39.06%
same,Cell death #1 (%),"[2]; PC3, 72 hours, 0.17 μM",−49.03%
same,Cell death #2 (%),"[2]; PC3, 72 hours, 0.17 μM",−43.54%
same,Cell death #3 (%),"[2]; PC3, 72 hours, 0.17 μM",−39.93%
same,Cell death (%) MEAN,"[2]; PC3, 72 hours, 0.17 μM",−44.17%
same,Cell death #1 (%),"[2]; PC3, 72 hours, 0.51 μM",−71.45%
same,Cell death #2 (%),"[2]; PC3, 72 hours, 0.51 μM",−77.56%
same,Cell death #3 (%),"[2]; PC3, 72 hours, 0.51 μM",−73.70%
same,Cell death (%) MEAN,"[2]; PC3, 72 hours, 0.51 μM",−74.24%
same,Cell death #1 (%),"[2]; PC3, 72 hours, 1.54 μM",−63.98%
same,Cell death #2 (%),"[2]; PC3, 72 hours, 1.54 μM",−69.71%
same,Cell death #3 (%),"[2]; PC3, 72 hours, 1.54 μM",−46.41%
same,Cell death (%) MEAN,"[2]; PC3, 72 hours, 1.54 μM",−60.03%
same,Cell death #1 (%),"[2]; PC3, 72 hours, 4.63 μM",−74.57%
same,Cell death #2 (%),"[2]; PC3, 72 hours, 4.63 μM",−70.83%
same,Cell death #3 (%),"[2]; PC3, 72 hours, 4.63 μM",−81.17%
same,Cell death (%) MEAN,"[2]; PC3, 72 hours, 4.63 μM",−75.52%
same,Cell death #1 (%),"[2]; PC3, 72 hours, 13.89 μM",−60.86%
same,Cell death #2 (%),"[2]; PC3, 72 hours, 13.89 μM",−51.02%
same,Cell death #3 (%),"[2]; PC3, 72 hours, 13.89 μM",−63.98%
same,Cell death (%) MEAN,"[2]; PC3, 72 hours, 13.89 μM",−58.62%
same,Cell death #1 (%),"[2]; PC3, 72 hours, 41.67 μM",−35.45%
same,Cell death #2 (%),"[2]; PC3, 72 hours, 41.67 μM",−32.21%
same,Cell death #3 (%),"[2]; PC3, 72 hours, 41.67 μM",−34.95%
same,Cell death (%) MEAN,"[2]; PC3, 72 hours, 41.67 μM",−34.20%
same,Cell death #1 (%),"[2]; PC3, 72 hours, 125.00 μM",35.94%
same,Cell death #2 (%),"[2]; PC3, 72 hours, 125.00 μM",32.46%
same,Cell death #3 (%),"[2]; PC3, 72 hours, 125.00 μM",22.11%
same,Cell death (%) MEAN,"[2]; PC3, 72 hours, 125.00 μM",30.17%
